Consider 86 compounds from ChEMBL document CHEMBL1157539, “Thousands of chemical starting points for antimalarial lead identification” (Nature, 2010).

The subject of this experiment is Plasmodium falciparum. Nature of the experiment: GSK_TCMDC: Inhibition of Plasmodium falciparum 3D7 in whole erythrocytes, using parasite LDH activity as an index of growth. Type of experiment: functional, organism-based. The following applies: Plasmodium falciparum, 3D7.
`CCN(CC)CCN(Cc1ccc(-c2ccc(C(F)(F)F)cc2)cc1)C(=O)Cn1c(CCc2cccc(F)c2F)nc(=O)c2cccnc21` gave an XC50 of 728 nM.

`CCN(CC)CCN(Cc1ccc(-c2ccc(C(F)(F)F)cc2)cc1)C(=O)Cn1c(CCc2cccc(C#N)c2)nc(=O)c2ccccc21` yielded an XC50 of 768 nM. For `CCN(CC)CCN(Cc1ccc(-c2ccc(C(F)(F)F)cc2)cc1)C(=O)Cn1cc(Cc2cnn(C)c2)c(=O)n2nc(-c3ccccc3)cc12` the value was 730 nM; for `CCCCCOc1ccc(/N=C2\C=C(O)C(=O)c3ccccc32)cc1`, 243 nM. As for `COc1cccc2c(Nc3ccccc3C)nc(Nc3ccccc3C)nc12`, the figure is 679 nM. Compound `OC(CNCc1ccccc1OCc1ccccc1)c1cc(C(F)(F)F)cc(C(F)(F)F)c1` (stereo unspecified) gave an XC50 of 134 nM.

As for `CCc1cc2c3c(N)nc(N)nc3ccc2n1C(C)(C)C`, the XC50 stood at 12.7 nM. Regarding `CCc1cn2c3c(cc(C(=O)N[C@@H](Cc4ccccc4)[C@H](O)CNCc4ccccc4)cc13)N(C)S(=O)(=O)CC2`, the XC50 was 664 nM. For `CN1CCC(NCc2ccc(-c3ccc(Cl)cc3)cc2)CC1`, the XC50 is 750 nM. On to `CCCc1cc(C)ccc1OCCCON1C(N)=NC(N)=NC1(C)C`, for which the XC50 turned out to be 3.2 nM. As to `OCCC1CCN(Cc2ccc(-c3ccc(-c4nc5ccccc5[nH]4)cc3)cc2)CC1`, the XC50 came to 768 nM. In the case of `CCCC(C)Nc1nc(C)cc(N[C@@H](Cc2ccccc2)C(=O)NCc2ccc(C)cc2)n1` (stereo partly specified), the XC50 was found to be 1120 nM.

`COc1ccc2nccc([C@@H](O)CN3CCC(NCc4nc5cc(F)cc(F)c5[nH]4)CC3)c2c1` showed an XC50 of 573 nM.

The compound `CCN1CCN(Cc2c(O)ccc3c(=O)c(Oc4cc(C)cc(C)c4)c(C(F)(F)F)oc23)CC1` returned an XC50 of 773 nM.

With `CC[C@H](C)[C@H](NC(=O)[C@H](CC1CCCCC1)[C@H](CC)N(O)C=O)C(=O)Nc1ccccn1`, the XC50 was found to be 176 nM. As for `CCCNC(=O)c1cncc(-c2ccc(CNCCCc3ccccc3)cc2)c1`, the figure is 688 nM; as for `COc1cc(C(=O)NC2CCN(Cc3ccccc3)CC2)ccc1-c1cc2cc(Cl)c(Cl)cc2[nH]1`, 227 nM. As for `COc1ccc(-c2cc(-c3nc4cc(CN)ccc4[nH]3)c(=O)n(C)c2)cc1OC`, the figure is 1400 nM. For `O=C(NCc1ccc(C(=O)N2CCC(N3CCCCC3)CC2)cc1)c1cc(-c2cccc(C(F)(F)F)c2)ccc1O` the value was 817 nM; for `COc1ccc2nccc([C@@H](O)CN3CCC(NCc4cc5ccccc5s4)CC3)c2c1`, 347 nM; for `CC(C)Cn1cc(C2CCN(CCN3CCC(CNC(=O)c4ccc(NC(=O)c5ccc(Cl)cc5)cc4)CC3)CC2)c2ccccc21`, 251 nM. Compound `O=C(Nc1ccc(-c2ccc(-c3nc4ccccc4[nH]3)s2)cc1)c1ccncc1` gave an XC50 of 789 nM.

`NC(=O)c1cccc(CNCc2ccc(-c3cccc(-c4nc5ccccc5[nH]4)c3)cc2)c1` registered an XC50 of 592 nM.

In turn, `COc1ccc2nc(C)cc(Nc3ccc(Cl)cc3)c2c1` displayed an XC50 of 946 nM.

Compound `O=S(=O)(c1ccccc1)C1CC1` yielded an XC50 of 724 nM. Compound `Clc1ccc2c(NCc3ccccc3)ccnc2c1` returned an XC50 of 339 nM.

With `CC(C)(C)c1ccc(CNC(=O)c2ccc(CNC3CCC(N)CC3)s2)cc1` (stereo unspecified), the XC50 was 531 nM. For `O=C(Nc1cccc(OCc2ccccc2)c1)c1ccc(CN2CCC(Cc3ccccc3)CC2)cc1` the value was 850 nM; for `COc1cc(OC)cc(C(=O)Nc2cccc(-c3cn4ccc(C)cc4n3)c2)c1`, 994 nM. For `COc1cccc2c(NN=Cc3cccc(Cl)c3)cc(C)nc12` the value was 709 nM; for `Cc1ccc2[nH]c3c(NCCN(C)C)ncnc3c2c1`, 838 nM; for `O=C(NCCCCN1CCC(O)(c2ccc3c(c2)OCO3)CC1)c1ccc(NC(=O)c2ccc(Cl)cc2)cc1`, 1180 nM.

As for `CCOc1cc(CC)ccc1C1CCN(CCN2CCC(NC(=O)c3ccc(-c4ccc(C(C)=O)cc4)cc3)CC2)CC1`, the XC50 turned out to be 226 nM.

Consider `COc1cc(C(=O)N2CCOC(CCN3CCC(c4ccc(Cl)cc4)CC3)(c3ccc(Cl)c(Cl)c3)C2)cc(OC)c1OC` (stereo unspecified), for which the XC50 stood at 179 nM. Regarding `Nc1nccc2ccc(-c3ccc(OCc4ccccc4)cc3)cc12`, the XC50 amounted to 222 nM. `COc1ccc2nccc([C@@H](O)CN3CCC(NCc4ccc(OC)c(NC(C)=O)c4)CC3)c2c1` had an XC50 of 835 nM. On to `Nc1ccc(-c2ccc(NC(=O)Nc3ccccc3)cc2)cn1`, for which the XC50 is 920 nM.

In turn, `O=C(/C=C/c1ccc(Cl)c(Cl)c1)NCCCCCCN1CCCN(C(=O)Nc2ccc(F)c(F)c2)CC1` had an XC50 of 1240 nM.

`COc1cccc(C(=O)Nc2ccc(Oc3ccc(Cl)cc3)cc2)c1` came in with an XC50 of 956 nM. For `CNC(=O)c1ccc2[nH]cc(C3CCN(CC4CCN(C(=O)/C=C/c5ccc(Cl)c(Cl)c5)CC4)CC3)c2c1` the value was 1520 nM; for `c1ccc(C(c2ccccc2)N2CCC(NCc3ccc(OCCCN4CCCCC4)cc3)CC2)cc1`, 557 nM; for `O=C(NCC1CCN(Cc2cccc(C(F)(F)F)c2)C1)c1cc(-c2cccc(Cl)c2)cs1` (stereo unspecified), 803 nM.

`CCCN(CCC)CCCCC(C)Nc1c2ccc(Cl)cc2nc2ccc(OC)cc12` (stereo unspecified): the XC50 worked out at 137 nM. With `CCCC(C(=O)OCCNC)(c1ccccc1)c1ccccc1`, the XC50 is 889 nM. Compound `COc1ccc(CC2(c3ccc(F)cc3)N=C(N)N(CCCc3ccccc3)C2=O)cc1` (stereo unspecified) came in with an XC50 of 613 nM. In the case of `Cc1ccc2c(c1)NCC21CCN(C[C@@H](O)C2CCN(c3ccnc(Cl)c3)CC2)CC1C` (stereo partly specified), the XC50 was 940 nM. As for `FC(F)(F)c1ccc2[nH]c(-c3cccc(-c4ccc(CNCc5cnn(-c6ccccc6)n5)cc4)c3)nc2c1`, the figure is 1330 nM; as for `COc1cc2c(cc1C=CC(=O)N1CCN(Cc3nc(O)c4c(C)c(C)sc4n3)CC1)OC(C)C2` (stereo unspecified), 1020 nM; as for `CC(CN1CCN(C)CC1)C(=O)Nc1cccc(-c2cccc(-c3nc4cc(F)ccc4[nH]3)c2)c1` (stereo unspecified), 274 nM.

`COc1ccc(CN2CCCN(Cc3cccc(NC(=O)c4cc5ccccc5s4)c3)CC2)cc1`: the XC50 worked out at 842 nM. Turning to `COc1ccc(CNC(=O)NC2CCN(c3ccnc(Nc4cc(OC)c(OC)c(OC)c4)n3)C2)cc1` (stereo unspecified), the XC50 turned out to be 946 nM.

In turn, `N=C(Nc1cccc(Cc2ccccc2)n1)Nc1ncccn1` gave an XC50 of 928 nM. For `c1cc(OCCN2CCCC2)ccc1CNC1CCN(CC2CCCCC2)CC1` the value was 845 nM; for `CC[C@H](C)CNC(=O)c1ccnc(-c2ccc(CNCCCc3ccccc3)cc2)c1`, 1230 nM; for `Nc1nccc2ccc(-c3ccc(NC(=O)Nc4cc(C(F)(F)F)ccc4F)cc3)cc12`, 86.3 nM. As for `CNCc1ccc(-c2cccc(CNCc3ccc(-c4ccccc4)cc3)c2)c(C(=O)OC)c1`, the figure is 980 nM; as for `COc1cc(NCC(O)CNc2cc(OC)c3ccccc3n2)nc2ccccc12`, 109 nM. For `O=C(NCc1ccc(Cl)cc1)c1ccc(CN2CCCN(Cc3cccc(O)c3)CC2)cc1` the value was 1170 nM. In turn, `Clc1ccc2nc(-c3cccnc3)[nH]c2c1` showed an XC50 of 38.4 nM. As for `Cc1ccc(Nc2nccc(NCC(O)c3cccc(C(F)(F)F)c3)n2)cc1` (stereo unspecified), the figure is 677 nM; as for `CCCC(=O)Nc1ccc(OCCCN(Cc2ccccc2F)c2ccc(C#N)c(C(F)(F)F)c2)cc1`, 595 nM.

Consider `COc1cc2c(cc1NS(=O)(=O)c1ccc(OCc3ccc(Br)cc3)cc1)CCN(C1CCC1)CC2`, for which the XC50 amounted to 843 nM. As for `COc1cc2nc(NCCCN3CCCCC3)nc(NCc3ccccc3)c2cc1OC`, the figure is 998 nM; as for `O=S(=O)(c1ccc(OCc2ccc(Cl)cc2)cc1)c1cc2c(c(-c3ccc(F)cc3)c1)CCN(CC1CC1)CC2`, 1120 nM. As for `c1ccc(-c2ccc3c(Nc4ccc5[nH]ccc5c4)ccnc3c2)nc1`, the figure is 943 nM. For `OCC1CCCCN1Cc1cccc(-c2cccc(-c3nc4ccccc4[nH]3)c2)c1` (stereo unspecified) the value was 779 nM; for `CCCCNCc1ccc(-c2nc(CN(CCCn3ccnc3)C(=O)Nc3ccc(CC)cc3)cs2)cc1`, 830 nM; for `CC(C)CCCC(C)(C)NC[C@@H](O)[C@H](Cc1ccccc1)NC(=O)c1cc(NC(C)C)cc(N2CCCCS2(=O)=O)c1`, 206 nM. Consider `CC(=O)NCCNc1nccc(N2CCc3ncnc(Nc4ccc(OCc5cccc(F)c5)c(Cl)c4)c3C2)n1`, for which the XC50 worked out at 129 nM. `CCCCCCNc1cc(C)nc2ccc(OC)cc12` came in with an XC50 of 552 nM. As for `O=c1cc(NCCCNCc2cc(C(F)(F)F)ccc2F)[nH]c2ccccc12`, the figure is 829 nM; as for `O=C(Nc1cc(Cl)cc(Cl)c1)N[C@H]1CCN(CCCCCNC(=O)C2CC2c2ccc(Cl)c(Cl)c2)C1` (stereo partly specified), 856 nM; as for `CSc1cccc(Nc2nc3ccc(S(=O)(=O)NCC(C)C)cc3n2C(C)C(C)C)c1` (stereo unspecified), 824 nM.

Regarding `Fc1ccc(CN2CCN(c3ncnc4cc(-c5ccccc5)sc34)CC2)cc1`, the XC50 was determined as 1020 nM. As for `CCOc1ccc(OCC)c(N2CCN(CCCCNC(=O)c3ccc(NC(=O)c4ccc(Cl)cc4)cc3)CC2)c1`, the figure is 587 nM; as for `O=C(Nc1ccc(OC2CCN(Cc3ccccc3)CC2)c(Cl)c1)c1ccco1`, 408 nM. As for `Cc1cccc2nc(-c3cccc(-c4cccc(NC(=O)c5cccnc5)c4)c3)[nH]c12`, the figure is 228 nM; as for `CN(C)Cc1cccc(-c2cc3c(-c4cnn(C)c4)c(Cl)cnc3[nH]2)c1`, 905 nM. For `O=C(Nc1ccc(N2CCN(Cc3ccccc3)CC2)cc1)c1cccs1` the value was 769 nM; for `FC(F)(F)c1cc(C(F)(F)F)c2cc(CNCCCNc3nc4ccccc4[nH]3)[nH]c2c1`, 141 nM. The compound `CN1CCC(C(=O)Nc2cccc(-c3ccc(-c4nc5cc(F)ccc5[nH]4)cc3)c2)CC1` gave an XC50 of 706 nM.

For the compound `Cc1cc(C=C2SC(=Nc3ccccc3)N(C3CCCC3)C2=O)c(C)n1-c1ccc(Cl)cc1`, the XC50 is 876 nM.

As to `C[C@@]12C[C@@H](Nc3nc(NCCc4ccc(O)cc4)nc(N4CCNCC4)n3)C[C@@H](C1)c1cccc(Cl)c1O2`, the XC50 stood at 1320 nM. In turn, `Cc1c(F)cc(C(=O)NC2CC2)cc1-c1ccc2c(cnn2S(=O)(=O)c2ccc(C#N)cc2)c1` registered an XC50 of 100 nM.

As to `O=C(Nc1ccc(Cl)cc1C(=O)Nc1ccncc1)c1ccc(Cl)cc1Cl`, the XC50 turned out to be 611 nM.

`Nc1nc(N)c2c(n1)CCC(c1ccccc1)C2` (stereo unspecified): the XC50 turned out to be 1010 nM.
